Assays:
Assay type in all cases: physicochemical
[1] = Heat resistance of exposed coating film of coloring alkali-developable photosensitive composition; details: for Relative intensity After exposure: coating film after exposure (150 mJ/cm^2), before heating; for λmax: coating film of composition containing the compound, on glass; for Relative intensity 230° C., 30 min: exposed coating film after 230° C.
Description: 30.33 g of ACA Z250 (manufactured by Daicel Cytec Company Ltd.) and 11.04 g of ARONIX M-450 (manufactured by Toagosei Co., Ltd.) as the component (B), 1.93 g of IRGACURE 907 (manufactured by BASF) as the component (C), 36.60 g of PGMEA and 20.08 g of cyclohexanone as the component (E), as well as 0.01 g of FZ2122 (manufactured by Dow Corning Toray Co., Ltd.) as other component were mixed and stirred until insoluble components were diminished to give Alkali-developable photosensitive composition No. 1.
1.90 g of dimethylacetamide was added to 0.10 g of Compound No. 1 obtained above as the component (A) and dissolved under stirring.
5.0 g of Alkali-developable photosensitive composition No. 1 obtained in Step 1 and 1.0 g of Dye liquid No. 1 obtained in Step 2 were mixed and stirred to homogeneous to give Coloring alkali-developable photosensitive composition No. 1 of the present invention.
Coloring alkali-developable photosensitive compositions Nos. 2 to 20 were obtained in a similar manner to that in Example 2-1, except that Compound No. 1 as the component (A) in Step 2 of Example 2-1 was changed to Compound No. 2, 3, 5, 6, 16, 53, 56, 57, 59, 60, 65, 66, 94 or 96 to 101 obtained above.
Comparative coloring alkali-developable photosensitive compositions Nos. 1 and 2 were obtained in a similar manner to that in Example 2-1, except that Compound No. 1 as the component (A) in Step 2 of Example 2-1 was changed to Comparative Compound No. 1 or 2.
The coloring alkali-developable photosensitive compositions obtained in Example 2 were each applied to a glass basal plate under a condition of 410 rpm×7 sec and dried (90° C., 90 sec) on a hot plate. The obtained coating film was exposed (150 mJ/cm^2) by using an ultrahigh pressure mercury lamp. The heat resistance of the exposed coating film was investigated under conditions of 180° C.×60 min and 230° C.×30 min. The results are shown in [Table 7].
Using the coloring alkali-developable photosensitive compositions obtained in Examples 2-2 to 2-20 and Comparative Examples 2-1 and 2-2, heat resistance was investigated in a similar manner to that in Evaluation Example 3. The results are shown in [Table 7].

[2] = Solubility in PGMEA; details: concentration when PGMEA was added dropwise to 0.1 g of the compound under stirring and was dissolved completely
Procedure: (§1) That the obtained solid was an intended product was confirmed by ^1H-NMR and IR. Furthermore, the solubility of the obtained compound was measured. The solubility was a concentration when PGMEA was added dropwise to 0.1 g of the compound under stirring and was dissolved completely. The results thereof are shown in [Table 1] to [Table 4].
as §1, with “added” for “added dropwise”, “while” for “under”, “4]” for “4].”

[3] = Evaluation of heat resistance by TG-DTA; details: temperature at 10% weight loss
Procedure: Compounds Nos. 1 to 7, 16, 26, 43, 52 to 62, 65, 66, 69, 70 and 94 to 102 and Comparative Compounds Nos. 1 and 2 obtained above were analyzed by TG-DTA, and the melting points and temperatures at 10% weight loss were measured. The results are shown in [Table 6].

[4] = Evaluation of absorption wavelength property in CHCl3 solution; design: ε: unit not given here; details: for ε: molar absorption coefficient
Description: The absorption wavelength properties of Compounds Nos. 1 to 7, 16, 26, 43, 52 to 62, 65, 66, 69, 70 and 94 to 102 and Comparative Compounds Nos. 1 and 2 obtained above were each evaluated in a CHCl3 solution. The results are shown in [Table 5].

SMILES	Relative intensity After exposure [1]	λmax [1]	Relative intensity 230° C., 30 min [1]	Solubility (PGMEA) [2]	10% weight loss [3]	λmax [4]	ε [4]
CCN(CC)c1ccc(/C=C(\C#N)C(=O)OCC(C)(COC(=O)/C(C#N)=C/c2ccc(N(C)CCO)cc2)COC(=O)/C(C#N)=C/c2ccc(N(CC)CC)cc2)cc1 (centres unmarked) [Compound No. 100]	100	436 nm	99.7	6.0 wt %	330 °C	434 nm	147000
CC(COC(=O)/C(C#N)=C/c1ccc(N(Cc2ccccc2)Cc2ccccc2)cc1)(COC(=O)/C(C#N)=C/c1ccc(N(Cc2ccccc2)Cc2ccccc2)cc1)COC(=O)/C(C#N)=C/c1ccc(N(Cc2ccccc2)Cc2ccccc2)cc1 [Compound No. 101]	100	426 nm	99.4	10.0 wt %	336 °C	425 nm	153000

— patent publication US8664289B2, “Dye and coloring photosensitive composition” (Adeka Corporation, priority 2010, dated 2014)
